Source: ChEMBL document CHEMBL5257053, “Discovery of Orally Bioavailable FGFR2/FGFR3 Dual Inhibitors via Structure-Guided Scaffold Repurposing Approach” (ACS Med Chem Lett, 2023)
Converted amounts (≈) assume the structure as drawn.

How the values were obtained:
hERG (KCNH2) = hERG (KCNH2) (Homo sapiens, UniProt Q12809); test: Inhibition of human ERG at 10 uM relative to control; format: toxicity
[1] = AUCinfinity in cynomolgus monkey at 3 mg/kg, po measured up to 24 hrs; format: ADME, organism-based, Macaca fascicularis; parameters: time < 24 hrs, dose 3 mg/kg, route po; conditions: in vivo
Cytochrome P450 2C9 = Cytochrome P450 2C9 (Homo sapiens, UniProt P11712); test: Inhibition of CYP2C9 (unknown origin); format: ADME
[2] = Solubility of compound in stimulated gastric fluid; format: ADME; conditions: simulated gastric fluid
[3] = Volume of distribution at steady state in Sprague-Dawley rat at 3 mg/kg, po or 1 mg/kg, iv measured up to 24 hrs; format: ADME, organism-based; conditions: in vivo
Cytochrome P450 3A4 = Cytochrome P450 3A4 (Homo sapiens, UniProt P08684); test: Inhibition of CYP3A4 (unknown origin); format: ADME
[4] = Permeability in human Caco-2 cells incubated for 120 mins by LC-MS/MS analysis; format: ADME, cell-based; conditions: read-out: permeability
[5] = target: Vascular endothelial growth factor receptor 2 (Homo sapiens, UniProt P35968); test: Inhibition of KDR (unknown origin) using peptide substrate incubated for 90 mins in presence of ATP by HTRF method
[6] = target: T1, Fibroblast growth factor receptor 2 (Homo sapiens, UniProt P21802); test: Inhibition of FGFR2 in human KATOIII cells incubated for 1 hr; format: cell-based, KATO III stomach cancer cell line
[7] = Oral bioavailability in cynomolgus monkey at 3 mg/kg measured up to 24 hrs; format: ADME, organism-based, Macaca fascicularis; conditions: in vivo
[8] = Solubility of compound in fasted state stimulated intestinal fluid; format: ADME; conditions: fasted state simulated intestinal fluid
[9] = Volume of distribution at steady state in cynomolgus monkey at 3 mg/kg, po or 1 mg/kg, iv measured up to 24 hrs; format: ADME, organism-based, Macaca fascicularis; conditions: in vivo
[10] = Drug concentration in NSG mouse plasma at 30 mg/kg, po measured after 2 hrs; format: ADME, organism-based
[11] = Half life in Sprague-Dawley rat at 3 mg/kg, po or 1 mg/kg, iv measured up to 24 hrs; format: ADME, organism-based; conditions: in vivo
[12] = Protein binding in human plasma assessed as free fraction after 2 hrs by equilibrium dialysis method; format: ADME, cell-free
[13] = target: T1, Fibroblast growth factor receptor 2; test: Inhibition of recombinant human FGFR2 (400 to 821 residues) using biotin-EQEDEPEGDYFEWLE-amide as substrate preincubated for 5 to 10 mins followed by substrate addition and measured after 1 hr in presence of ATP by HTRF assay
Activin receptor type-1 = target: T2, Activin receptor type-1 (Homo sapiens, UniProt Q04771); test: Inhibition of recombinant human ALK2 (147 to end residues) expressed in Sf9 infected baculovirus expression system using TRF0130 as substrate incubated for 3 hrs in presence of […]
T2 sequence (Q04771 whole entry): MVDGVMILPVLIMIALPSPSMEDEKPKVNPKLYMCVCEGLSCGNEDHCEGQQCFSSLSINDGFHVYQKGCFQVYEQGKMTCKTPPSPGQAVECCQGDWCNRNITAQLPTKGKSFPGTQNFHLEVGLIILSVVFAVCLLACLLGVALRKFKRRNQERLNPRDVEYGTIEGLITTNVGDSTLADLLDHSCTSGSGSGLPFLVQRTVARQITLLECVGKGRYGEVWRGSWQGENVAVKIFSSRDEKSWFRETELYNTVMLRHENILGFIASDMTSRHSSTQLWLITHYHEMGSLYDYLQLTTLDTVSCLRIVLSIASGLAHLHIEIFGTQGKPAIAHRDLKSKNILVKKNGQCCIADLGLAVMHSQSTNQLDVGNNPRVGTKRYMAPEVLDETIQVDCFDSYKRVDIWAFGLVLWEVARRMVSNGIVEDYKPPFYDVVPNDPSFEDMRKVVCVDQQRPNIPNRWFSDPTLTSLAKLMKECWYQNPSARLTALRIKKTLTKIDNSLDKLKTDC

Cytochrome P450 2D6 = Cytochrome P450 2D6 (Homo sapiens, UniProt P10635); test: Inhibition of CYP2D6 (unknown origin); format: ADME
Cytochrome P450 2B6 = target: T3, Cytochrome P450 2B6 (Homo sapiens, UniProt P20813); test: Inhibition of CYP2B6 (unknown origin); format: ADME
T3 sequence (P20813 whole entry): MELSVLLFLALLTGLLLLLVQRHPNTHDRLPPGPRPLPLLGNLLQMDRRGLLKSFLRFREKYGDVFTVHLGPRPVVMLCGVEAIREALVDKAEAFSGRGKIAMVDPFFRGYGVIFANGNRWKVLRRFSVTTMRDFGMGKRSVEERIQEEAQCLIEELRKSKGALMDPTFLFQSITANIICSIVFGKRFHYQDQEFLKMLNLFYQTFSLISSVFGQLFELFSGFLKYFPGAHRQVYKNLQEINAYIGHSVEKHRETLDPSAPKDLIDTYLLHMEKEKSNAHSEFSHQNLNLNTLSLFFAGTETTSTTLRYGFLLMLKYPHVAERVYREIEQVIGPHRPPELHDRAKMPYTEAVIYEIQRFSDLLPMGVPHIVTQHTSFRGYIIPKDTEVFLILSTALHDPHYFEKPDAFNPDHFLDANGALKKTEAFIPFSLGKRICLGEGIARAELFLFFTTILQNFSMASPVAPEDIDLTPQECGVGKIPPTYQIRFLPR

[14] = Clearance in Sprague-Dawley rat at 3 mg/kg, po or 1 mg/kg, iv measured up to 24 hrs; format: ADME, organism-based; conditions: in vivo
[15] = target: Fibroblast growth factor receptor 3 (Mus musculus, UniProt Q61851); test: Inhibition of FGFR3 phosphorylation in mouse BaF3 cells incubated for 2 hrs; format: cell-based
[16] = Cmax in cynomolgus monkey at 3 mg/kg, po measured up to 24 hrs; format: ADME, organism-based, Macaca fascicularis; parameters: time < 24 hrs, dose 3 mg/kg, route po; conditions: in vivo
[17] = Cmax in Sprague-Dawley rat at 3 mg/kg, po measured up to 24 hrs; format: ADME, organism-based; parameters: dose 3 mg/kg, time < 24 hrs, route po; conditions: in vivo
[18] = Oral bioavailability in Sprague-Dawley rat at 3 mg/kg measured up to 24 hrs; format: ADME, organism-based; conditions: in vivo
Cytochrome P450 1A2 = target: T4, Cytochrome P450 1A2 (Homo sapiens, UniProt P05177); test: Inhibition of CYP1A2 (unknown origin); format: ADME
T4 sequence (P05177 whole entry): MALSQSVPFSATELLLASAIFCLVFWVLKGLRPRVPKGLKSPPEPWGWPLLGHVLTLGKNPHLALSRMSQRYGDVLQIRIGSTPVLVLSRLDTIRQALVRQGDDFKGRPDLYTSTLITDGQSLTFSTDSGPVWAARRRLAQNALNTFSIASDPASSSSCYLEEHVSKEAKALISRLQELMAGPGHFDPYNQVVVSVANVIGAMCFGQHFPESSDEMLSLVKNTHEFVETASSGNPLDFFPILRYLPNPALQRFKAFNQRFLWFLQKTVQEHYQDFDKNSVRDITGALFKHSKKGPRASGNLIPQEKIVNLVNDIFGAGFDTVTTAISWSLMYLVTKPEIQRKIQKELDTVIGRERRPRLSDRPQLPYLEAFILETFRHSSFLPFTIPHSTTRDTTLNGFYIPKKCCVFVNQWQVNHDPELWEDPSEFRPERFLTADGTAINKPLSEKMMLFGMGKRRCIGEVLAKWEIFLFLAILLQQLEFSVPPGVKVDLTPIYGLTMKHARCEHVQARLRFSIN

[19] = target: Fibroblast growth factor receptor 4 (Homo sapiens, UniProt P22455); test: Inhibition of recombinant human FGFR4 (460 to 802 residues) using biotin-EQEDEPEGDYFEWLE-amide as substrate preincubated for 5 to 10 mins followed by substrate addition and measured after 1 hr in presence of ATP by HTRF assay
[20] = Metabolic stability in human liver microsomes assessed as intrinsic clearance at 1 uM preincubated for 2 mins followed by NADPH addition and measured upto 30 mins by LC-MS/MS analysis; format: ADME, Microsome; conditions: time < 32 min, read-out: CLH (converted)
[21] = Clearance in cynomolgus monkey at 3 mg/kg, po or 1 mg/kg, iv measured up to 24 hrs; format: ADME, organism-based, Macaca fascicularis; conditions: in vivo
[22] = Half life in cynomolgus monkey at 3 mg/kg, po or 1 mg/kg, iv measured up to 24 hrs; format: ADME, organism-based, Macaca fascicularis; conditions: in vivo
[23] = AUCinfinity in Sprague-Dawley rat at 3 mg/kg, po measured up to 24 hrs; format: ADME, organism-based; parameters: dose 3 mg/kg, time < 24 hrs, route po; conditions: in vivo

T1 sequence (P21802 whole entry): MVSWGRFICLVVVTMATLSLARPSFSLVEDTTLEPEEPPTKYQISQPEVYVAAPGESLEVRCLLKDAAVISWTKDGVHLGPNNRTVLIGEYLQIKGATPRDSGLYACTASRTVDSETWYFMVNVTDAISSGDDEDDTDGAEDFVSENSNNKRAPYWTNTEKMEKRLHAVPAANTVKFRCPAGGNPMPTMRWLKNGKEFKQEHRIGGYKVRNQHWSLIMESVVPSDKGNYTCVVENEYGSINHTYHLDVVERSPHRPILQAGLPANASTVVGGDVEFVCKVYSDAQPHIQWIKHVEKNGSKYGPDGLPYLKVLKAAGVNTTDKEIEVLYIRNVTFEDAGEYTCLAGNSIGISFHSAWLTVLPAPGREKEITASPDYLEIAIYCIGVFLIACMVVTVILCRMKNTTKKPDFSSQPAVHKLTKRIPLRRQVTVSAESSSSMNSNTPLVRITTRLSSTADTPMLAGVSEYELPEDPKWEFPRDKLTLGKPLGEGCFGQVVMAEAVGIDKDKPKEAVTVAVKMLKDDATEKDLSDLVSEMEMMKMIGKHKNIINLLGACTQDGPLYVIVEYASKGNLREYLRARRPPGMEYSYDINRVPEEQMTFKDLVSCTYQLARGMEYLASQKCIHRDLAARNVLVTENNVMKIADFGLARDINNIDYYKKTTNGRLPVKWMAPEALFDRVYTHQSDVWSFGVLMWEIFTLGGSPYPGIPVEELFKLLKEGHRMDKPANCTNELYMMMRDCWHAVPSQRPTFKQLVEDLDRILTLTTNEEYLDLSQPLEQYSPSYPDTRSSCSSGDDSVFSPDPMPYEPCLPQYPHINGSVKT
Sequence of Fibroblast growth factor receptor 3 (Q61851 whole entry): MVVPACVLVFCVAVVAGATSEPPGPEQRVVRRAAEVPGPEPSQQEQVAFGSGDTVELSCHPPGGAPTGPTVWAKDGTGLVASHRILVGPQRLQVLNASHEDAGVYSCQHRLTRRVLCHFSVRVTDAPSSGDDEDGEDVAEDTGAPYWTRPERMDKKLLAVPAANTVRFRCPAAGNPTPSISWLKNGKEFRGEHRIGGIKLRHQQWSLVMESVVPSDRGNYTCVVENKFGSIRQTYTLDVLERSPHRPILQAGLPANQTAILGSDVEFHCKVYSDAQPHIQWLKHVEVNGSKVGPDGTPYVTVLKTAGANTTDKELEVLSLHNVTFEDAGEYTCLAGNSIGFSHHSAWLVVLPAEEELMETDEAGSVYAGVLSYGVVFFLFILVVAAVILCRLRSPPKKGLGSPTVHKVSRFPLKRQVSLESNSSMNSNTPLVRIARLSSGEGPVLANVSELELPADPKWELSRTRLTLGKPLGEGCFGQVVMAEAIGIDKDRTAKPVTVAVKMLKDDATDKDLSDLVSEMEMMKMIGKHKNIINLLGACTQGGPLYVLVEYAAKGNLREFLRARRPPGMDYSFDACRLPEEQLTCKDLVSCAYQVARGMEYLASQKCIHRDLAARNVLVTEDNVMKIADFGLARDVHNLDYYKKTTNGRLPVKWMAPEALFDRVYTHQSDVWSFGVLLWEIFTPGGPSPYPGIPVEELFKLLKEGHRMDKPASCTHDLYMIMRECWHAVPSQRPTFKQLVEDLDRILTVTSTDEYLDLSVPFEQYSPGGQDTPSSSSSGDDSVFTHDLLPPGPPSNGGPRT
Sequence of hERG (KCNH2) (Q12809 whole entry): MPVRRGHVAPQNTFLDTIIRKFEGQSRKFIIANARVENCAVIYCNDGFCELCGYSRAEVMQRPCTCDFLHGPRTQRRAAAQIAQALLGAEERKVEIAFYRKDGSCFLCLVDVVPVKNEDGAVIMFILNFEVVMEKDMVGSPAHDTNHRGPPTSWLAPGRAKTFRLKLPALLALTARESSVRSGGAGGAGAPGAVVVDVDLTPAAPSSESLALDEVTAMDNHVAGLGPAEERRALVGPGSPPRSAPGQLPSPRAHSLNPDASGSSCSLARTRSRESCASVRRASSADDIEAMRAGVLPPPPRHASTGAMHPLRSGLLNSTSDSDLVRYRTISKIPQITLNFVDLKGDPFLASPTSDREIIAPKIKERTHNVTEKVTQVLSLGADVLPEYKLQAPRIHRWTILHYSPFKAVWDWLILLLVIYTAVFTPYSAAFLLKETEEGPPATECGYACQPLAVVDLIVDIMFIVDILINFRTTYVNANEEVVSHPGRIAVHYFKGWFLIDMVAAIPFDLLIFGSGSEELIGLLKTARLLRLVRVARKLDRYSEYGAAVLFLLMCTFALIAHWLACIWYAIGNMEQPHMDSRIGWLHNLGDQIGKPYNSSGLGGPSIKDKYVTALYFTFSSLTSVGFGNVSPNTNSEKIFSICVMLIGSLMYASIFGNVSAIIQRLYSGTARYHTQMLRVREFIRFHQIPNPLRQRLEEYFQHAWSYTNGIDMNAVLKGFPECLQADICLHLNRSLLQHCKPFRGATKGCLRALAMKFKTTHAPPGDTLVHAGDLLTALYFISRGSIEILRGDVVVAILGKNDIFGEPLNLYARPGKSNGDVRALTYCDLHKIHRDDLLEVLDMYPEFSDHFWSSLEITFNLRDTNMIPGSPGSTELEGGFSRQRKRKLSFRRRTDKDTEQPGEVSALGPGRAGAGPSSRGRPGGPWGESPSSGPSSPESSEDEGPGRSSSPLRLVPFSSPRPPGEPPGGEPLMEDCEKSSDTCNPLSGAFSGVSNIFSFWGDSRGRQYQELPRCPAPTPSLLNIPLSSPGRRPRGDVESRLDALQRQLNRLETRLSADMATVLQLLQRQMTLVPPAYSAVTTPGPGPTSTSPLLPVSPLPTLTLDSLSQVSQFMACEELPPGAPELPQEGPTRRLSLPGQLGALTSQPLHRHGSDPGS
Sequence of Cytochrome P450 3A4 (P08684 whole entry): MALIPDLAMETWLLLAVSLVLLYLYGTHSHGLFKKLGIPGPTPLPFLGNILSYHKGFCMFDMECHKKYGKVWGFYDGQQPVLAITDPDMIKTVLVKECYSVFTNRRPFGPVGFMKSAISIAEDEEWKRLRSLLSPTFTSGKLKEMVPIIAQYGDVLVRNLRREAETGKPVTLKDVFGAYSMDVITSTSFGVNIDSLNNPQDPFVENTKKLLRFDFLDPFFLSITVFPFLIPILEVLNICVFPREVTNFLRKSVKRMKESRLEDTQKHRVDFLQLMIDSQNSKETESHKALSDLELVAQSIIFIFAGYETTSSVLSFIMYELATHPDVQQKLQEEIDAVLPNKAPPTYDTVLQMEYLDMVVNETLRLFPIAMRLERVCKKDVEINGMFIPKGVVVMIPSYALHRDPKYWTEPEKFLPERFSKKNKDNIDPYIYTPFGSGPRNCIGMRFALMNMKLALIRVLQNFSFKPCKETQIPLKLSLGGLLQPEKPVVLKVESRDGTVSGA
Sequence of Vascular endothelial growth factor receptor 2 (P35968 whole entry): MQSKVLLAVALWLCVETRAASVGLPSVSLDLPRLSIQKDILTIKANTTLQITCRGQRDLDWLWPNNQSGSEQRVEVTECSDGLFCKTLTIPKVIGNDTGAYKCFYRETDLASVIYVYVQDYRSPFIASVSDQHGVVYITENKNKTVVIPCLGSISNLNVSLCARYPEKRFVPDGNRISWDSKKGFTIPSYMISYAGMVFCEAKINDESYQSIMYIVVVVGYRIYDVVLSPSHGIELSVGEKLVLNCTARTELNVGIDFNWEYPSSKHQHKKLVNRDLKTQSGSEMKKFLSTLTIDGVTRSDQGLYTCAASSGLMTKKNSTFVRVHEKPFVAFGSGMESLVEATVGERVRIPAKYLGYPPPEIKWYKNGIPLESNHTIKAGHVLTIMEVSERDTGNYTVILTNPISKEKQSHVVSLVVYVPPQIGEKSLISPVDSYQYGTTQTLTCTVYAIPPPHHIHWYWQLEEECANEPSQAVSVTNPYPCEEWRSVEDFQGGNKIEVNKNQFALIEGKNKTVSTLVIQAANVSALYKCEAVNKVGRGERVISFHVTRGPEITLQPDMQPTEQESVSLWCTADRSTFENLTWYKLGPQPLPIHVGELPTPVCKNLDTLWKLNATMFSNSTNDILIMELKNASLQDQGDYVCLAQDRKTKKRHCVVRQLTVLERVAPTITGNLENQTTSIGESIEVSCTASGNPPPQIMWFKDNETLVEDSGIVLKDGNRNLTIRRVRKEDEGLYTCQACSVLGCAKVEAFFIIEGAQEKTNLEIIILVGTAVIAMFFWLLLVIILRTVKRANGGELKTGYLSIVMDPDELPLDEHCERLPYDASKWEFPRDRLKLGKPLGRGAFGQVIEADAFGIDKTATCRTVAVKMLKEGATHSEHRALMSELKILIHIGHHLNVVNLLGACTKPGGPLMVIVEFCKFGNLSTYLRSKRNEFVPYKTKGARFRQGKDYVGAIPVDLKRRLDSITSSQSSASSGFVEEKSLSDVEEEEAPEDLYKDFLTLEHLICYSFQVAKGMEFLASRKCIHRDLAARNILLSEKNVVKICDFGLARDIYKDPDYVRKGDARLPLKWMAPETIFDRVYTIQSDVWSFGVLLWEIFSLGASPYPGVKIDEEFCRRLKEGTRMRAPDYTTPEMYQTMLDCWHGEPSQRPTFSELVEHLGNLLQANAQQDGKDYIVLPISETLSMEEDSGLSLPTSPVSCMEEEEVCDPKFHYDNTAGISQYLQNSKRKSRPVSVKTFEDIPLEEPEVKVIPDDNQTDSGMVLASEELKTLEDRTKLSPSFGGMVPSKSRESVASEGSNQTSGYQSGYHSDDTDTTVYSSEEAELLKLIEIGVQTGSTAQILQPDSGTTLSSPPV

CN1C[C@@H]2CC[C@H](C1=O)N2c1ncc2[nH]nc(-c3cnn(C4CCC4)c3)c2n1
inhibition at 10 µM (hERG (KCNH2)): < 10% | AUC(0-inf) [1]: 2.21 µM·h | IC50 (Cytochrome P450 2C9): > 10000 nM | solubility [2]: > 400 µg/mL | Vdss [3]: 2.6 L/kg | IC50 (Cytochrome P450 3A4): > 10000 nM | Papp at 2 h [4]: 4 ×10⁻⁶ cm/s | IC50 [5]: 184 nM | IC50 [6]: 24 nM | bioavailability [7]: 20% | solubility [8]: 557 µg/mL (≈ 1470 µM) | Vdss [9]: 0.66 L/kg | concentration at 2 h [10]: 760 nM | half-life [11]: 6.6 h | fraction unbound at 2 h [12]: 0.11 | IC50 [13]: 1.8 nM | IC50 (Activin receptor type-1): 477 nM | IC50 (Cytochrome P450 2D6): > 10000 nM | IC50 (Cytochrome P450 2B6): > 10000 nM | CL [14]: 23.3 mL/min/kg | IC50 [15]: 16 nM | Cmax [16]: 825 nM | Cmax [17]: 5550 nM | bioavailability [18]: 100% | IC50 (Cytochrome P450 1A2): > 10000 nM | IC50 [19]: 157 nM | CLint scaled at 1 µM [20]: 16.7 mL/min/kg | CL [21]: 12 mL/min/kg | half-life [22]: 3.2 h | AUC(0-inf) [23]: 5.82 µM·h
